Source: ChEMBL document CHEMBL5356966, “A dual mechanism with H2S inhibition and membrane damage of morusin from Morus alba Linn. against MDR-MRSA” (2024)
≈ marks a conversion by molar mass, not a printed value. Calls of active or inactive are those of the source. The calls are words filed in the database; no cut-off is given here.

Experiments:
Staphylococcus aureus [1] = experiment: Antibacterial activity Staphylococcus aureus assessed as inhibition of bacterial growth incubated for 24 hrs by CLSI based analysis; format: functional
Enterococcus = experiment: Antibacterial activity vancomycin-resistant Enterococcus assessed as inhibition of bacterial growth incubated for 24 hrs by CLSI based analysis; format: functional
Staphylococcus aureus [2] = experiment: Antibacterial activity methicillin-resistant Staphylococcus aureus 003 assessed as inhibition of bacterial growth incubated for 24 hrs by CLSI based analysis; format: functional
Staphylococcus aureus [3] = experiment: Antibacterial activity methicillin-resistant Staphylococcus aureus 011 assessed as inhibition of bacterial growth incubated for 24 hrs by CLSI based analysis; format: functional
Acinetobacter baumannii = experiment: Antibacterial activity Acinetobacter baumannii assessed as inhibition of bacterial growth incubated for 24 hrs by CLSI based analysis; format: functional
Escherichia coli = experiment: Antibacterial activity Escherichia coli assessed as inhibition of bacterial growth incubated for 24 hrs by CLSI based analysis; format: functional
Staphylococcus aureus [4] = experiment: Antibacterial activity methicillin-resistant Staphylococcus aureus 003 assessed as inhibition of H2S production at 50 uM; format: functional
Staphylococcus aureus [5] = experiment: Bactericidal activity against methicilin-resistant Staphylococcus aureus 003 at 4 times MIC measured after 24 hrs by time kill assay; format: functional, organism-based
Staphylococcus aureus [6] = experiment: Bactericidal activity against Staphylococcus aureus at 4 times MIC measured after 24 hrs by time kill assay; format: functional, organism-based
Staphylococcus aureus [7] = experiment: In vivo antibacterial activity against methicilin-resistant Staphylococcus aureus infected in ICR mouse skin infection model assessed as wound area at 40 mg/kg, ip preadministered with compound for 24 hrs followed by bacterial infection and measured after 3 days; format: functional; settings: time 96 hrs

Row | Structure (SMILES) | MIC (Staphylococcus aureus [1]) | MIC (Enterococcus) | MIC (Staphylococcus aureus [2]) | MIC (Staphylococcus aureus [3]) | MIC (Acinetobacter baumannii) | MIC (Escherichia coli) | inhibition at 50 µM (Staphylococcus aureus [4]) | Activity (Staphylococcus aureus [5]) | Activity (Staphylococcus aureus [6]) | Activity (Staphylococcus aureus [7])
1 | COc1cccc(OC)c1C(=O)N[C@@H]1C(=O)N2[C@@H]1SC(C)(C)[C@@H]2C(=O)[O-].[Na+] | 1 µg/mL | 32 µg/mL | > 128 µg/mL | > 128 µg/mL | – | – | – | – | – | –
2 | CC(C)CCCCC(=O)N[C@@H](CCN)C(=O)N[C@H](C(=O)N[C@@H](CCN)C(=O)N[C@H]1CCNC(=O)[C@H]([C@@H](C)O)NC(=O)[C@H](CCN)NC(=O)[C@H](CCN)NC(=O)[C@H](CC(C)C)NC(=O)[C@@H](Cc2ccccc2)NC(=O)[C@@H](CCN)NC1=O)[C@@H](C)O.O=S(=O)(O)O | 8 µg/mL | 128 µg/mL | 16 µg/mL | 16 µg/mL | 1 µg/mL | 0.25 µg/mL | – | – | – | –
3 | NOCC(=O)O [CARBOXYMETHOXYLAMINE] | – | – | – | – | – | – | 30% | – | – | –
4 | CO[C@@]1(NC(=O)Cc2cccs2)C(=O)N2C(C(=O)O)=C(COC(N)=O)CS[C@@H]21 [CEFOXITIN] | 2 µg/mL (≈ 4.68 µM) | > 128 µg/mL | > 128 µg/mL | > 128 µg/mL | – | – | – | inactive | inactive | 0.28 cm2
